# Measured values reported in patent US9150638B2, “Factor XII inhibitors for treating interstitial lung disease” (Justus-Liebig-Universität Giessen, priority 2010, dated 2015).
# Columns and labels:
# FXIIa = molecular target: T1, FXIIa (Homo sapiens, UniProt P00748); conditions: cited from earlier work
# T1 sequence (P00748 373-615 limits assumed): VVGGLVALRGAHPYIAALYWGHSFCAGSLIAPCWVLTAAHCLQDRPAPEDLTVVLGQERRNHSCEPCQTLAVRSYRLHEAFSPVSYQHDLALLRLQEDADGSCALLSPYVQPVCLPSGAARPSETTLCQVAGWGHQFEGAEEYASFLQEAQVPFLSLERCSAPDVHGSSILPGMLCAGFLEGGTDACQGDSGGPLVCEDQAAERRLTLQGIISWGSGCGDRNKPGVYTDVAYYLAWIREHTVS
# T1 sequence (P00748 20-372 partner limits assumed): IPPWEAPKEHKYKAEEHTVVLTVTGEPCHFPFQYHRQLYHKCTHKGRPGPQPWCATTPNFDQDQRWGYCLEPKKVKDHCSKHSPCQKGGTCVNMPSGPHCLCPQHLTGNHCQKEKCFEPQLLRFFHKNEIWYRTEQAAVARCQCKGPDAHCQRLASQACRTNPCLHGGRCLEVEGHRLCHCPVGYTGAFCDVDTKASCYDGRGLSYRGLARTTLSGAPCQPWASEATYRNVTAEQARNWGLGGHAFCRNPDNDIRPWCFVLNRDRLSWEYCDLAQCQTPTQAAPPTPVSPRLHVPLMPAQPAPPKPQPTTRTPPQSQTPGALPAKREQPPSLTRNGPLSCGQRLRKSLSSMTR
# FXII = assay: TGF-β1-induced FXII expression in HLF; assay type: cell-based, human; conditions: HLF treated with inhibitor 1 h prior to TGF-β1 for 48 h
# Description: Human lung specimens of the pulmonary parenchyma and mouse lungs were chopped into <1 mm^3 pieces. The minced pieces were washed twice with PBS and then plated in 100-mm dishes (Greiner-bio-one, Frickenhausen, Germany). The specimens were cultured with Dulbecco's modified Eagle's medium (DMEM; Invitrogen, Karlsruhe, Germany) supplemented with 10% fetal calf serum (FCS; HyClone, South Logan, UT), and 1% penicillin/streptomycin (Invitrogen) in humidified atmosphere of 5% CO2 at 37° C. Purity of isolated fibroblasts was verified by positive staining for vimentin, fibronectin and collagen IV. All experiments were carried out with lung fibroblasts from passages 3-4. The mouse NIH3T3 fibroblasts were cultured in DMEM supplemented with 10% FCS, and 1% penicillin/streptomycin in humidified atmosphere of 5% CO2 at 37° C.
# (§1) Proteins separated on SDS polyacrylamide gel were transferred to a PVDF membrane (Amersham Biosciences, Freiburg, Germany) using wet transfer technique in transfer buffer (25 mM Tris, 192 mM Glycine, 20% (v/v) Methanol) for 1 h at 100V. After blocking with 5% non-fat dry milk in tris-buffered saline (TBS; 25 mM Tris-Cl, 150 mM NaCl, pH 7.5) containing 0.1% (v/v) Tween 20 (TBS-T), the membranes were incubated at 4° C. overnight with appropriate primary antibody diluted in 1% BSA in TBS-T. After 1 h incubation with peroxidase-labelled secondary antibody (all from Dako, Gostrup, Denmark) proteins were detected using ECL Plus Kit (Amersham Biosciences, Freiburg, Germany). To determine the amounts of protein loaded on the gel, blots were in 1 hour (stripping buffer: 100 mM Glycine, 1% HCl) and reprobed using an anti-β-actin or appropriate anti-pan antibody.
# Pre-designed, commercially available siRNA sequences directed against human Smad 3 (Dharmacon, Chicago, Ill.), human JNK1 (Abnova, Heidelberg, Germany), and an universal negative-control siRNA (Ambion, Austin, Tex.) were employed. Cells were treated with siRNA (250 nM each) using the X-treme Gene siRNA Transfection Reagent (Roche). The siRNA-mediated downregulation of the target genes was assessed 72 h after transfection by Western blotting.
# Smad 3 [1] = assay: Western blot of Smad 3 phosphorylation in TGF-β1 treated HLF; assay type: cell-based, human
# Description: as §1
# JNK = assay: Western blot of JNK activity in TGF-β1 treated HLF; assay type: cell-based, human
# Smad 3 [2] = assay: TGF-β1 driven translocation of phospho-Smad 3 to the nucleus in HLF; assay type: cell-based, human
# Description: as §1, with “antibody. […]” for “antibody.”
# […]. […] After boiling, the DNA-bound proteins were analyzed by Western blot using rabbit anti-phospho Smad 3 antibody (Cell Signaling). […]
# Smad 3-SBE-272 = assay: ChIP of the Smad 3-SBE-272 complex; assay type: cell-based, human
# Description: ChIP was performed using Chromatin Immunoprecipitation Assay Kit from Millipore (Schwalbach, Germany) according to manufacturer's instruction. […] The cross-linked chromatin was then prepared and sonicated to an average size of 500-800 bp. The DNA fragments were immunoprecipitated with rabbit anti-Smad 3 antibody (Cell Signaling) or IgG isotype control overnight at 4° C. After reversal of cross-linking, the immunoprecipitated chromatin was amplified by PCR using following primers: human FXII-299 bp forward: [NT] ID NO:25); human FXII-299 bp reverse: [NT] ID NO:26).
# FXII promoter = FXII promoter luciferase assay in NIH3T3 cells; conditions: pGL3-299 construct; inhibitor 1 h prior to 10 ng/ml TGF-β1
Molecule,prolonging activated partial thromboplastin time (FXIIa),FXII expression in response to TGF-β1 (Western blot) (FXII),Smad 3 phosphorylation in response to TGF-β1 (Smad 3 [1]),JNK activity / JNK1 phosphorylation in response to TGF-β1 (JNK),"TGF-β1-induced Smad 3 translocation to the nucleus (Smad 3 [2]; HLF pretreated with inhibitor, TGF-β1 1 h)","accumulation of Smad 3 in the nucleus, inhibitor alone (Smad 3 [2]; HLF, without TGF-β1, data not shown)",TGF-β1 induced Smad 3-DNA complex formation (ChIP) (Smad 3-SBE-272; HLF pretreated with inhibitor 1 h prior to TGF-β1),"interaction of Smad3 with DNA, inhibitor alone (Smad 3-SBE-272; without TGF-β1, data not shown)",TGF-β1 driven luciferase activity (FXII promoter)
"Infestin-4: Kazal-type serine protease inhibitor domain 4 from Triatoma infestans, FXIIa inhibitor (SEQ ID NO: 33) (EVRNPCACFRNYVPVCGSDGKTYGNPCMLNCAAQTKVPGLKLVHEGRC; Triatoma infestans)",approximately three-fold,–,–,–,–,–,–,–,–
NC(=O)c1ccc(-c2nc(-c3ccc4c(c3)OCO4)c(-c3ccccn3)[nH]2)cc1 [SB431542],–,reduction of FXII expression,attenuated,attenuated,completely blocks,did not affect,completely abolished,did not affect,strongly reduced
